Assay results reported in patent US20200071361A1, “ENGINEERED ANTIMICROBIAL AMPHIPHILIC PEPTIDES AND METHODS OF USE” (priority 2017, published 2020).
In brackets after ≈: the same amount, converted by molar mass.

How the values were obtained:
Assay in all cases: Broth microdilution MIC (Table 2)
Type in all cases: cell-based
[1] = test system: Escherichia coli ATCC BAA-2471 (NDM-1); settings: ATCCBAA2471
Method: (§1) Each peptide was formulated in PBS buffer prior to testing. Peptides of SEQ ID NO:5 and SEQ ID NO:8 were brought up in 100% DMSO with 0.002% polysorbate-80 at 1.28 mg/mL (40× the highest final test concentration of 32 mcg/mL). Final test concentration of DMSO was 2.5% in the assay at the first dilution for those two compounds.
(§2) Mueller Hinton II broth (MHB II; BD; Lot Nos. 6258541 and 7143896) was used for MIC testing of aerobic organisms. 0.002% polysorbate 80 (P80) was added to the test medium.
(§3) MIC values were determined using a broth microdilution procedure described by CLSI (1, 3). Automated liquid handlers (Multidrop 384, Labsystems, Helsinki, Finland; Biomek 2000 and Biomek FX, Beckman Coulter, Fullerton Calif.) were used to conduct serial dilutions and liquid transfers.
(§4) To prepare the drug mother plates, which would provide the serial peptide dilutions for the replicate daughter plates, the wells of columns 2-12 of standard 96-well microdilution plates (Costar 3795) were filled with 150 μl of the designated diluent for each row of peptide. The test articles and comparator compounds (300 μl at 40× the highest concentration to be tested) were dispensed into the appropriate wells in column 1. The Biomek 2000 was then used to make 2-fold serial dilutions in the mother plates from column 1 through column 11. The wells of Column 12 contained no drug and served as the organism growth control wells for the assay.
(§5) The daughter plates were loaded with 185 μL per well of MHB II using the Multidrop 384. The daughter plates were completed on the Biomek FX instrument which transferred 5 uL of peptide solution from each well of a mother plate to the corresponding well of each daughter plate in a single step. A standardized inoculum of each test organism was prepared per CLSI methods. The inoculum for each organism was dispensed into sterile reservoirs divided by length (Beckman Coulter), and the Biomek 2000 was used to inoculate the plates. Daughter plates were placed on the Biomek 2000 work surface in reverse orientation so that inoculation took place from low to high drug concentration. The plates were then inoculated with 10 μL of the inoculum resulting in a final cell density of approximately 5×10^5 CFU/mL, per well.
(§6) Plates were stacked 3-4 high, covered with a lid on the top plate, placed in plastic bags, and incubated at 35° C. for 16 to 20 hrs. Following incubation, the microplates were removed from the incubator and viewed from the bottom using a plate viewer. […] The MIC was read and recorded as the lowest concentration of peptide that inhibited visible growth of the organism.

[2] = test system: Acinetobacter baumannii ATCC BAA-1797 (MDR); settings: ATCCBAA1797, read-out: MIC
Method: as §1, §2, §3, §4, §5, §6

[3] = test system: Staphylococcus aureus ATCC 29213 (MSSA; QC); settings: read-out: MIC
Method: as §1, §2, §3, §4, §5, §6

[4] = test system: Enterococcus faecalis ATCC 29212 (VSE; QC); settings: ATCC29212, read-out: MIC
Method: as §1, §2, §3, §4, §5, §6

[5] = test system: Streptococcus pyogenes ATCC 49399; settings: ATCC49399, read-out: MIC
Method: as §1, §2, §3, §4, §5, §6

[6] = test system: Klebsiella pneumoniae ATCC BAA-1705 (KPC); settings: ATCCBAA1705
Method: as §1, §2, §3, §4, §5, §6

[7] = test system: Enterococcus faecium ATCC 51559 (VRE); settings: read-out: MIC
Method: as §1, §2, §3, §4, §5, §6

[8] = test system: Acinetobacter baumannii ATCC 19606 (non-MDR); settings: ATCC19606, read-out: MIC
Method: as §1, §2, §3, §4, §5, §6

[9] = test system: Streptococcus pneumoniae ATCC 49619 (QC); settings: ATCC49619, read-out: MIC
Method: as §1, §2, §3, §4, §5, §6

[10] = test system: Staphylococcus aureus ATCC 43300 (MRSA); settings: read-out: MIC
Method: as §1, §2, §3, §4, §5, §6

[11] = test system: Escherichia coli ATCC 25922 (QC); settings: ATCC25922
Method: as §1, §2, §3, §4, §5, §6

## C[C@H]1COc2c(N3CCN(C)CC3)c(F)cc3c(=O)c(C(=O)O)cn1c23 [Levofloxacin]
[1]
  MIC: 64 µg/mL (≈ 177 µM)
[2]
  MIC: 0.25 µg/mL (≈ 0.692 µM)
[3]
  MIC: 0.25 µg/mL (≈ 0.692 µM)
[4]
  MIC: 1 µg/mL (≈ 2.77 µM)
[5]
  MIC: 0.5 µg/mL (≈ 1.38 µM)
[6]
  MIC: 64 µg/mL (≈ 177 µM)
[7]
  MIC: 16 µg/mL (≈ 44.3 µM)
[8]
  MIC: 0.25 µg/mL (≈ 0.692 µM)
[9]
  MIC: 1 µg/mL (≈ 2.77 µM)
[10]
  MIC: 0.25 µg/mL (≈ 0.692 µM)
[11]
  MIC: 0.015 µg/mL (≈ 0.0415 µM)
